Measured values from patent US10221171B2, “Oxathiazole thiazolium Hsp 70 inhibitors” (THE REGENTS OF THE UNIVERSITY OF CALIFORNIA, priority 2015, dated 2019).
Where two headings read alike, the source gives them in different places.

How the values were obtained:
Type in all cases: cell-based
MEF (C57BL/6) = test: MTT cell viability assay, MEF (C57BL/6); conditions: Mus musculus
Method: (§1) Cells were then treated with compound at various concentrations in 0.2 mL media. After the 72-hour incubation period, cells were washed in PBS (3×100 μL), and 10 μL MTT reagent was added with 100 μL fresh media. Cells were then incubated for 4 hr in a humidified chamber at 37° C. with 5% CO2. Insoluble formazan crystals were solubilized by addition of 0.1 mL detergent solution (4 hr at room temp., dark). Resulting colored solutions were then quantified at an absorbance of 570 nm.

MDA-MB-231 = test: MTT cell viability assay, MDA-MB-231; conditions: Homo sapiens
Method: as §1

MCF-7 = test: MTT cell viability assay, MCF-7; conditions: Homo sapiens, MTT, 72-hour incubation, read-out: IC50/μM MCF-7
Method: as §1

[1] = MTT, 72-hour incubation, read-out: IC50/μM MEF (C57BL/6)
[2] = 72 h, read-out: IC50/μM MEF (C57BL/6), MTT, 72-hour incubation
[3] = MDA-MB-231, 72 h, 72-hour incubation

Row | Structure (SMILES) | IC50 (MDA-MB-231; MDA-MB-231, 72-hour incubation) | IC50 (MCF-7; MCF7) | IC50 (MEF (C57BL/6); [1]) | IC50 (MEF (C57BL/6); [2]) | IC50 (MDA-MB-231; [3]) | IC50 (MCF-7; MCF7, 72 h)
1 | CCn1c(=O)/c(=C2\Sc3cc(Cl)ccc3N2C)s/c1=C\c1scc[n+]1Cc1ccc(Cl)cc1 [JG-255] | – | – | – | 3.1 ± 0.3 µM | 0.41 ± 0.06 µM | 1.45 ± 0.13 µM
2 | CCn1c(=O)/c(=C2\Sc3cc(C)ccc3N2C)s/c1=C\c1scc[n+]1Cc1ccccc1OC [JG-375] | – | – | – | 0.96 ± 0.03 µM | 0.082 ± 0.01 µM | 0.071 ± 0.006 µM
3 | CCn1c(=O)/c(=C2\Sc3ccc(C)cc3N2C)s/c1=C\c1scc[n+]1Cc1ccccc1Br [JG-367] | 0.22 ± 0.02 µM | 0.12 ± 0.01 µM | 0.54 ± 0.02 µM | – | – | –
4 | CCn1c(=O)/c(=C2\Sc3cc(Cl)ccc3N2C)s/c1=C\c1scc[n+]1Cc1c(Cl)cccc1Cl [JG-337] | – | – | – | 1.4 ± 0.1 µM | 0.16 ± 0.01 µM | 0.16 ± 0.01 µM
5 | CCn1c(=O)/c(=C2\Sc3cc(OC)ccc3N2C)s/c1=C\c1scc[n+]1Cc1ccccc1 [JG-250] | – | – | 2 ± 0.1 µM | – | 0.16 ± 0.01 µM | 0.13 ± 0.01 µM
6 | C=CCn1c(=O)/c(=C2\Sc3ccccc3N2C)s/c1=C\c1scc[n+]1Cc1ccccc1 [JG-276] | 0.27 ± 0.03 µM | 0.24 ± 0.02 µM | 2.5 ± 0.1 µM | – | – | –
7 | CCn1c(=O)/c(=C2\Sc3cc(C)ccc3N2C)s/c1=C\c1scc[n+]1Cc1ccccc1OC(F)(F)F [JG-270] | – | – | – | 0.75 ± 0.05 µM | 0.077 ± 0.009 µM | 0.064 ± 0.005 µM
8 | CCn1c(=O)/c(=C2\Sc3cc(F)ccc3N2C)s/c1=C\c1scc[n+]1Cc1ccccc1OC [JG-264] | 0.24 ± 0.03 µM | 0.49 ± 0.04 µM | 1.4 ± 0.1 µM | – | – | –
9 | CCn1c(=O)/c(=C2\Sc3cc(Cl)ccc3N2C)s/c1=C\c1scc[n+]1CCc1ccc(Cl)cc1 [JG-385] | 0.61 ± 0.05 µM | 0.69 ± 0.05 µM | 4.4 ± 0.3 µM | – | – | –
10 | CCn1c(=O)/c(=C2\Sc3cc([N+](=O)[O-])ccc3N2C)s/c1=C\c1scc[n+]1Cc1ccccc1 [JG-252] | – | > 5 µM | – | 2.8 ± 0.1 µM | 4.8 ± 0.4 µM | –
11 | CCn1c(=O)/c(=C2\Sc3ccc(OC)cc3N2C)s/c1=C\c1scc[n+]1Cc1ccsc1C(=O)OC [JG-402] | 0.23 ± 0.01 µM | 0.45 ± 0.04 µM | 0.82 ± 0.06 µM | – | – | –
12 | CCn1c(=O)/c(=C2\Sc3cc(C)ccc3N2C)s/c1=C\c1scc[n+]1CCc1cccc(C(F)(F)F)c1 [JG-384] | 0.68 ± 0.1 µM | 0.62 ± 0.08 µM | 1.1 ± 0.1 µM | – | – | –

Further compounds by falling IC50 (MDA-MB-231; MDA-MB-231, 72-hour incubation), results first:

Row | IC50 (MDA-MB-231; MDA-MB-231, 72-hour incubation) | IC50 (MCF-7; MCF7) | Structure (SMILES) | IC50 (MEF (C57BL/6); [1]) | IC50 (MEF (C57BL/6); [2]) | IC50 (MDA-MB-231; [3]) | IC50 (MCF-7; MCF7, 72 h)
13 | 0.22 ± 0.03 µM | 0.095 ± 0.005 µM | CCn1c(=O)/c(=C2\Sc3cc(C)ccc3N2C)s/c1=C\c1scc[n+]1Cc1ccccc1SC(F)(F)F [JG-373] | 0.44 ± 0.03 µM | – | – | –
14 | 0.21 ± 0.02 µM | 0.18 ± 0.02 µM | CCn1c(=O)/c(=C2\Sc3cc(F)ccc3N2C)s/c1=C\c1scc[n+]1[C@@H](C)c1ccccc1 [JG-336] | 2.2 ± 0.1 µM | – | – | –
15 | 0.2 ± 0.01 µM | 0.7 ± 0.08 µM | CCn1c(=O)/c(=C2\Sc3ccc(OC)cc3N2C)s/c1=C\c1scc[n+]1Cc1c(Cl)cccc1Cl [JG-403] | 1.2 ± 0.1 µM | – | – | –
16 | 0.16 ± 0.01 µM | 0.12 ± 0.01 µM | CCn1c(=O)/c(=C2\Sc3cc(OC)ccc3N2C)s/c1=C\c1scc[n+]1Cc1ccsc1C(=O)OC [JG-305] | 1 ± 0.1 µM | – | – | –
17 | 0.14 ± 0.01 µM | 0.25 ± 0.01 µM | CCn1c(=O)/c(=C2\Sc3cc(SC)ccc3N2C)s/c1=C\c1scc[n+]1Cc1ccccc1C(=O)OC [JG-357] | 3.5 ± 0.2 µM | – | – | –
18 | 0.13 ± 0.02 µM | 0.12 ± 0.01 µM | CCn1c(=O)/c(=C2\Sc3cc(Cl)ccc3N2C)s/c1=C\c1scc[n+]1Cc1ccccc1Br [JG-307] | 1.1 ± 0.1 µM | – | – | –
19 | 0.11 ± 0.01 µM | 0.14 ± 0.02 µM | CCn1c(=O)/c(=C2\Sc3cc(Cl)ccc3N2C)s/c1=C\c1scc[n+]1[C@@H](C)c1ccccc1 [JG-335] | 1.4 ± 0.1 µM | – | – | –
20 | 0.11 ± 0.01 µM | 0.2 ± 0.01 µM | CCn1c(=O)/c(=C2\Sc3ccc(OC)cc3N2C)s/c1=C\c1scc[n+]1Cc1ccccc1SC(F)(F)F [JG-399] | 3.1 ± 0.2 µM | – | – | –
21 | 0.1 ± 0.01 µM | 0.1 ± 0.01 µM | CCn1c(=O)/c(=C2\Sc3cc(OC)ccc3N2C)s/c1=C\c1scc[n+]1Cc1c(Cl)cccc1Cl [JG-348] | 1.1 ± 0.1 µM | – | – | –
22 | 0.1 ± 0.01 µM | 0.65 ± 0.13 µM | CCn1c(=O)/c(=C2\Sc3cc(F)ccc3N2C)s/c1=C\c1scc[n+]1Cc1ccccc1SC(F)(F)F [JG-254] | 1.5 ± 0.1 µM | – | – | –
23 | 0.097 ± 0.006 µM | 0.08 ± 0.005 µM | CCc1ccc2c(c1)S/C(=c1/s/c(=C\c3scc[n+]3Cc3ccccc3OC(F)(F)F)n(CC)c1=O)N2C [JG-297] | 0.41 ± 0.01 µM | – | – | –
24 | 0.096 ± 0.01 µM | 0.13 ± 0.01 µM | CCn1c(=O)/c(=C2\Sc3cc(SC)ccc3N2C)s/c1=C\c1scc[n+]1Cc1c(Cl)cccc1Cl [JG-354] | 1.1 ± 0.1 µM | – | – | –
25 | 0.093 ± 0.005 µM | 0.084 ± 0.006 µM | CCc1ccc2c(c1)S/C(=c1/s/c(=C\c3scc[n+]3Cc3ccccc3Cl)n(CC)c1=O)N2C [JG-295] | 0.48 ± 0.01 µM | – | – | –
